Reference: ChEMBL document CHEMBL1212909, “Lactones and quinones from the tubers of Sinningia aggregata” (2010)

How the values were obtained:
Candida dubliniensis [1] = test: Antifungal activity against Candida dubliniensis ATCC 777 by broth microdilution method
Candida dubliniensis [2] = test: Antifungal activity against Candida dubliniensis ATCC 778157 by broth microdilution method

Row | MIC (Candida dubliniensis [1]) | MIC (Candida dubliniensis [2]) | SMILES
1 | > 100 µg/mL | > 100 µg/mL | Cc1ccc2c(c1)C(=O)c1ccccc1C2=O [TECTOQUINONE]
2 | > 100 µg/mL | > 100 µg/mL | COc1ccc2c(c1)C(=O)c1cc(C)ccc1C2=O
3 | > 100 µg/mL | > 100 µg/mL | Cc1ccc2c(c1)C(=O)c1cc(O)ccc1C2=O
